Data: US20050181947A1, “Fungicidal seed treatment agent for oilseed rape” (BASF Agro BV., Amhem (NL)-Wadenswil-Branch, priority 2002, published 2005)

Tests used:
[1] = tested on: Fungal infestation of the leaves; assay: Field trial of treated oilseed rape seed: fungal infestation of the leaves (grading); format: in vivo, Brassica napus
Procedure: (§1) The seed treated in accordance with the production examples described above was tested in field trials at a sowing rate of 4 kg per hectare. The individual test parameters were evaluated using the methods usually used in practice in each case, such as determining the weight for plant biomass and grading in the event of fungal infestation.
(§2) The increase in the plant biomass and the suppression of fungal infestation in both the exemplary embodiments of treatment of oilseed rape seed with fluquinconazole is higher compared with the untreated control and compared with the active substance dimethomorph which was co-tested as a reference and is used as the standard treatment agent in oilseed rape for protection against downy mildew.

[2] = tested on: Brassica napus (winter rape, species Bristol); assay: Field trial of treated oilseed rape seed: plant biomass (determining the weight); format: in vivo; details: for Plant biomass (% - relative to untreated): standard treatment agent, rate not given, winter rape Bristol, untreated = 100
Procedure: as §1, §2

downy mildew = assay: Field trial of treated oilseed rape seed: foliar infestation with downy mildew (grading); format: in vivo, Brassica napus; details: 24 days after sowing; standard treatment agent, rate not given; winter rape Bristol; untreated = 15
Procedure: as §1, §2

[3] = tested on: Brassica napus (winter rape, species Express); assay: Field trial of treated oilseed rape seed: yield; format: in vivo; details: seed treatment; independent of the site
Procedure: as §1
The yield after a period of vegetation is higher after treatment of the oilseed rape seed with fluquinconazole compared with the untreated control. This effect is independent of the site.

[4] = seed treatment, both exemplary embodiments

SMILES	Fungal infestation of the leaves (% total infestation) ([1]; 41 days after sowing, standard treatment agent, rate not given, winter rape Bristol, untreated = 30)	Plant biomass (% - relative to untreated) ([2]; 24 days after sowing) [%]	Plant biomass (% - relative to untreated) ([2]; 41 days after sowing) [%]	Foliar infestation with downy mildew (% total infestation) (downy mildew)	Suppression of fungal infestation compared with the untreated control and with dimethomorph [1, 4]	Increase in the plant biomass compared with the untreated control and with dimethomorph [2, 4]	Yield after a period of vegetation compared with the untreated control [3]
COc1ccc(C(=CC(=O)N2CCOCC2)c2ccc(Cl)cc2)cc1OC [Dimethomorph]	25	105	102	5			
O=c1c2cc(F)ccc2nc(-n2cncn2)n1-c1ccc(Cl)cc1Cl [fluquinconazole, 3-(2,4-dichlorophenyl)-6-fluoro-2-(1H-1,2,4-triazol-1-yl)-quinazolin-4(3H)-one]					higher	higher	higher
